Source: patent publication US20090156577A1, “7-AMINO ALKYLIDENYL-HETEROCYCLIC QUINOLONES AND NAPHTHYRIDONES” (priority 2004, published 2009)
≈ marks a conversion by molar mass, not a printed value. Where a name gives a salt, the structure may show the parent alone. Read-outs that look alike come from different tables or passages of the source.

Test system: pathogenic bacteria
Test: MIC by microdilution broth method (NCCLS M7-A4), in vitro antibacterial activity
Type: cell-based
Experimental: Minimal inhibitory concentration (MIC) has been an indicator of in vitro antibacterial activity widely used in the art. The in vitro antimicrobial activity of the compounds was determined by the microdilution broth method following the test method from the National Committee for Clinical Laboratory Standards (NCCLS). This method is described in the NCCLS Document M7-A4, Vol. 17, No. 2, “Methods for Dilution Antimicrobial Susceptibility Test for Bacteria that Grow Aerobically—Fourth Edition”, which is incorporated herein by reference.
In this method two-fold serial dilutions of drug in cation adjusted Mueller-Hinton broth are added to wells in microdilution trays. The test organisms are prepared by adjusting the turbidity of actively growing broth cultures so that the final concentration of test organism after it is added to the wells is approximately 5×10^4 CFU/well.
Following inoculation of the microdilution trays, the trays are incubated at 35° C. for 16-20 hours and then read. […] The amount of growth in the wells containing the test compound is compared with the amount of growth in the growth-control wells (no test compound) used in each tray. As set forth in Table 5, compounds of the present invention were tested against a variety of pathogenic bacteria resulting in a range of activities depending on the organism tested.

[1] = Staphylococcus aureus, Organism A: Staphylococcus aureus OC4172, read-out: MIC
[2] = Streptococcus pneumoniae, ATCC49619, Organism E: Streptococcus pneumoniae ATCC 49619, read-out: MIC
[3] = Streptococcus pneumoniae, Organism C: fluoroquinolone-resistant clinical isolate of Streptococcus pneumoniae (QRDR amino acid substitutions)
[4] = Streptococcus pneumoniae, Organism D: fluoroquinolone-resistant clinical isolate of Streptococcus pneumoniae (QRDR amino acid substitutions)
[5] = Streptococcus pneumoniae, Organism B: fluoroquinolone-resistant clinical isolate of Streptococcus pneumoniae (QRDR amino acid substitutions)

| SMILES | MIC [1] [µg/mL] | MIC [2] [µg/mL] | MIC [3] [µg/mL] | MIC [4] [µg/mL] | MIC [5] [µg/mL] | MIC (Staphylococcus aureus, Organism A: Staphylococcus aureus OC4172) [µg/mL] | MIC (Streptococcus pneumoniae, ATCC49619, Organism E: Streptococcus pneumoniae ATCC 49619) [µg/mL] |
| --- | --- | --- | --- | --- | --- | --- | --- |
| C[C@H]1COc2c(N3CCC/C(=C(\F)CN)CC3)c(F)cc3c(=O)c(C(=O)O)cn1c23 [Compound 492, (3S)-9-[(E)-4-(2-Amino-1-fluoro-ethylidene)-azepan-1-yl]-8-fluoro-3-methyl-6-oxo-2,3-dihydro-6H-1-oxa-3a-aza-phenalene-5-carboxylic Acid] | 0.06 (≈ 0.143 µM) | 0.25 (≈ 0.596 µM) | 4 (≈ 9.54 µM) | 8 (≈ 19.1 µM) |  |  |  |
| NCC(Cl)=C1CCN(c2c(F)cc3c(=O)c(C(=O)O)cn(C4CC4)c3c2OCF)CC1 [Compound 370, 7-[4-(2-Amino-1-chloro-ethylidene)-piperidin-1-yl]-1-cyclopropyl-6-fluoro-8-fluoromethoxy-4-oxo-1,4-dihydro-quinoline-3-carboxylic Acid] | 2 (≈ 4.41 µM) | 8 (≈ 17.6 µM) | > 16 | 16 (≈ 35.3 µM) | > 16 |  |  |
| CC(CN)=C1CN(c2c(F)cc3c(=O)c(C(=O)O)cn4c3c2OC[C@@H]4C)C1 [Compound 366, (S)-9-[3-(2-Amino-1-methyl-ethylidene)-azetidin-1-yl]-8-fluoro-3-methyl-6-oxo-2,3-dihydro-6H-1-oxa-3a-aza-phenalene-5-carboxylic Acid] | 4 (≈ 10.7 µM) | 4 (≈ 10.7 µM) | > 16 | 8 (≈ 21.4 µM) |  |  |  |
| O=C(O)c1cn(C2CC2)c2nc(N3CCC(=C(F)CO)CC3)c(F)cc2c1=O [Compound 172, 1-Cyclopropyl-6-fluoro-7-[4-(1-fluoro-2-hydroxy-ethylidene)-piperidin-1-yl]-4-oxo-1,4-dihydro-[1,8]naphthyridine-3-carboxylic acid] | 0.06 (≈ 0.153 µM) | 1 (≈ 2.56 µM) | 16 (≈ 40.9 µM) |  | 32 (≈ 81.8 µM) |  |  |
| COc1c(N2CCC(=C(Br)CN)CC2)c(F)cc2c(=O)c(C(=O)O)cn(C3CC3)c12 [Compound 204, 7-[4-(2-Amino-1-bromo-ethylidene)-piperidin-1-yl]-1-cyclopropyl-6-fluoro-8-methoxy-4-oxo-1,4-dihydro-quinoline-3-carboxylic acid] | 0.25 (≈ 0.52 µM) | 0.12 (≈ 0.25 µM) | 0.5 (≈ 1.04 µM) | 0.5 (≈ 1.04 µM) | 0.5 (≈ 1.04 µM) |  |  |
| COc1c(N2CCC/C(=C\CN)C2)c(F)cc2c(=O)c(C(=O)O)cn([C@@H]3C[C@@H]3F)c12 [Compound 409, (E)-7-[3-(2-Amino-ethylidene)-piperidin-1-yl]-6-fluoro-(1R,2S)-1-(2-fluoro-cyclopropyl)-8-methoxy-4-oxo-1,4-dihydro-quinoline-3-carboxylic acid] | 0.12 (≈ 0.286 µM) | 1 (≈ 2.38 µM) | > 16 | > 16 |  |  |  |
| CC1(C)CN(c2nc3c(cc2F)c(=O)c(C(=O)O)cn3C2CC2)CCC1=C(F)CN [Compound 175, 7-[4-(2-Amino-1-fluoro-ethylidene)-3,3-dimethyl-piperidin-1-yl]-1-cyclopropyl-6-fluoro-4-oxo-1,4-dihydro-[1,8]naphthyridine-3-carboxylic acid] | 0.5 (≈ 1.19 µM) | 0.25 (≈ 0.597 µM) | 2 (≈ 4.78 µM) | 1 (≈ 2.39 µM) | 2 (≈ 4.78 µM) |  |  |
| COc1c(N2CCC(=C(Cl)CN3CCOCC3)CC2)c(F)cc2c(=O)c(C(=O)O)cn(C3CC3)c12 [Compound 195, 7-[4-(1-Chloro-2-morpholin-4-yl-ethylidene)-piperidin-1-yl]-1-cyclopropyl-6-fluoro-8-methoxy-4-oxo-1,4-dihydro-quinoline-3-carboxylic acid] | 0.12 (≈ 0.237 µM) | 1 (≈ 1.98 µM) | 8 (≈ 15.8 µM) | 2 (≈ 3.95 µM) | 8 (≈ 15.8 µM) |  |  |
| Cc1c(F)c(N2CC(=C(Cl)CO)C2)cc2c1c(=O)c(C(=O)O)cn2C1CC1 [Compound 364, 7-[3-(1-Chloro-2-hydroxy-ethylidene)-azetidin-1-yl]-1-cyclopropyl-6-fluoro-5-methyl-4-oxo-1,4-dihydro-quinoline-3-carboxylic Acid] | 0.06 (≈ 0.153 µM) | 2 (≈ 5.09 µM) | > 16 | > 16 | > 16 |  |  |
| COc1c(N2CC/C(=C(/F)CN)C(C)C2)c(F)cc2c(=O)c(C(=O)O)cn(C3CC3)c12 (stereo not drawn) [Compound 11, (Z)-7-[4-(2-Amino-1-fluoro-ethylidene)-3-methyl-piperidin-1-yl]-1-cyclopropyl-6-fluoro-8-methoxy-4-oxo-1,4-dihydro-quinoline-3-carboxylic acid] | 0.03 (≈ 0.0692 µM) | 0.12 (≈ 0.277 µM) | 0.5 (≈ 1.15 µM) | 1 (≈ 2.31 µM) |  |  |  |
| COc1c(N2CCC(=C(Cl)CN)CC2)c(F)cc2c(=O)c(C(=O)O)cn(C3CC3)c12 [Compound 7, 7-[4-(2-Amino-1-chloro-ethylidene)-piperidin-1-yl]-1-cyclopropyl-6-fluoro-8-methoxy-4-oxo-1,4-dihydro-quinoline-3-carboxylic Acid] | 0.015 (≈ 0.0344 µM) | 0.06 (≈ 0.138 µM) | 0.12 (≈ 0.275 µM) | 0.12 (≈ 0.275 µM) | 0.06 (≈ 0.138 µM) |  |  |
| COc1c(N2CCC/C(=C/CN)C2)c(F)cc2c(=O)c(C(=O)O)cn([C@@H]3C[C@@H]3F)c12 [Compound 408, (Z)-7-[3-(2-Amino-ethylidene)-piperidin-1-yl]-6-fluoro-(1R,2S)-1-(2-fluoro-cyclopropyl)-8-methoxy-4-oxo-1,4-dihydro-quinoline-3-carboxylic acid] | 0.03 (≈ 0.0715 µM) | 0.25 (≈ 0.596 µM) | 2 (≈ 4.77 µM) | 2 (≈ 4.77 µM) | 1 (≈ 2.38 µM) |  |  |
| COc1c(N2CCC(=C(Cl)CN3CCCC3)CC2)c(F)cc2c(=O)c(C(=O)O)cn(C3CC3)c12 [Compound 193, 7-[4-(1-Chloro-2-pyrrolidin-1-yl-ethylidene)-piperidin-1-yl]-1-cyclopropyl-6-fluoro-8-methoxy-4-oxo-1,4-dihydro-quinoline-3-carboxylic acid] | 0.12 (≈ 0.245 µM) | 0.5 (≈ 1.02 µM) | 8 (≈ 16.3 µM) | 2 (≈ 4.08 µM) | 8 (≈ 16.3 µM) |  |  |
| NCC(Cl)=C1CCN(c2nc3c(cc2F)c(=O)c(C(=O)O)cn3C2CC2)CC1 [Compound 3, 7-[4-(2-Amino-1-chloro-ethylidene)-piperidin-1-yl]-1-cyclopropyl-6-fluoro-4-oxo-1,4-dihydro-[1,8]naphthyridine-3-carboxylic acid] | 0.06 (≈ 0.147 µM) | 0.12 (≈ 0.295 µM) | 0.25 (≈ 0.614 µM) | 1 (≈ 2.46 µM) | 1 (≈ 2.46 µM) |  |  |
| C[C@H]1COc2c(N3CCC/C(=C(/Cl)CN)CC3)c(F)cc3c(=O)c(C(=O)O)cn1c23 [Compound 372, (3S)-9-[(Z)-4-(2-Amino-1-chloro-ethylidene)-azepan-1-yl]-8-fluoro-3-methyl-6-oxo-2,3-dihydro-6H-1-oxa-3a-aza-phenalene-5-carboxylic Acid] | 0.5 (≈ 1.15 µM) | 2 (≈ 4.59 µM) | 16 (≈ 36.7 µM) | 8 (≈ 18.4 µM) |  |  |  |
| COc1c(N2CCC/C(=C(/F)CN)CC2)c(F)cc2c(=O)c(C(=O)O)cn(C3CC3)c12 [Compound 505, (Z)-7-[4-(2-Amino-1-fluoro-ethylidene)-azepan-1-yl]-1-cyclopropyl-6-fluoro-8-methoxy-4-oxo-1,4-dihydro-quinoline-3-carboxylic acid] | 0.12 (≈ 0.277 µM) | 0.25 (≈ 0.577 µM) | 4 (≈ 9.23 µM) | 1 (≈ 2.31 µM) |  |  |  |
| COc1c(N2CCC/C(=C(\F)CN)C2)c(F)cc2c(=O)c(C(=O)O)cn([C@@H]3C[C@@H]3F)c12 [Compound 405, (E)-7-[3-(2-Amino-1-fluoro-ethylidene)-piperidin-1-yl]-6-fluoro-(1R,2S)-1-(2-fluoro-cyclopropyl)-8-methoxy-4-oxo-1,4-dihydro-quinoline-3-carboxylic acid] | ≤ 0.015 | ≤ 0.25 | 0.25 (≈ 0.572 µM) | 0.25 (≈ 0.572 µM) | ≤ 0.12 |  |  |
| CNCC(F)=C1CCN(c2c(F)cc3c(=O)c(C(=O)O)cn(C4CC4)c3c2OC)CC1 [Compound 213, 1-Cyclopropyl-6-fluoro-7-[4-(1-fluoro-2-methylamino-ethylidene)-piperidin-1-yl]-8-methoxy-4-oxo-1,4-dihydro-quinoline-3-carboxylic acid] | 0.12 (≈ 0.277 µM) | 0.5 (≈ 1.15 µM) | 2 (≈ 4.61 µM) | 2 (≈ 4.61 µM) |  |  |  |
| CNCC(Cl)=C1CN(c2cc3c(cc2F)c(=O)c(C(=O)O)cn3C2CC2)C1 [Compound 431, 7-[3-(1-Chloro-2-methylamino-ethylidene)-azetidin-1-yl]-1-cyclopropyl-6-fluoro-4-oxo-1,4-dihydro-quinoline-3-carboxylic acid trifluoroacetic acid salt] |  |  | 1 | 2 | 4 | 0.06 | 0.25 |
| C[C@@H]1CN(c2nc3c(cc2F)c(=O)c(C(=O)O)cn3C2CC2)C/C(=C(/F)CN)CO1 [Compound 500, (Z)-7-[6-(2-Amino-1-fluoro-ethylidene)-(2R)-2-methyl-[1,4]oxazepan-4-yl]-1-cyclopropyl-6-fluoro-4-oxo-1,4-dihydro-[1,8]naphthyridine-3-carboxylic acid] | 2 (≈ 4.76 µM) | 16 (≈ 38.1 µM) | > 16 | > 16 | > 16 |  |  |
| NC/C(Cl)=C1\CCCN(c2c(F)cc3c(=O)c(C(=O)O)cn(-c4nc(N)c(F)cc4F)c3c2Cl)C1 [Compound 450, (Z)-7-[3-(2-Amino-1-chloro-ethylidene)-piperidin-1-yl]-1-(6-amino-3,5-difluoro-pyridin-2-yl)-8-chloro-6-fluoro-4-oxo-1,4-dihydro-quinoline-3-carboxylic acid] | 0.12 (≈ 0.227 µM) | 0.5 (≈ 0.946 µM) | 8 (≈ 15.1 µM) | 8 (≈ 15.1 µM) |  |  |  |
